Molecules are shown by their SMILES. pKi: −log10 of the molar value.

The test has as its target T1, hCRTH2 (Homo sapiens, UniProt Q9Y5Y4).
T1 construct: expressed in transfected cells; host or cells: HEK (human embryonic kidney) cells expressing hCRTH2; membrane preparation
T1 sequence (Q9Y5Y4 1-395): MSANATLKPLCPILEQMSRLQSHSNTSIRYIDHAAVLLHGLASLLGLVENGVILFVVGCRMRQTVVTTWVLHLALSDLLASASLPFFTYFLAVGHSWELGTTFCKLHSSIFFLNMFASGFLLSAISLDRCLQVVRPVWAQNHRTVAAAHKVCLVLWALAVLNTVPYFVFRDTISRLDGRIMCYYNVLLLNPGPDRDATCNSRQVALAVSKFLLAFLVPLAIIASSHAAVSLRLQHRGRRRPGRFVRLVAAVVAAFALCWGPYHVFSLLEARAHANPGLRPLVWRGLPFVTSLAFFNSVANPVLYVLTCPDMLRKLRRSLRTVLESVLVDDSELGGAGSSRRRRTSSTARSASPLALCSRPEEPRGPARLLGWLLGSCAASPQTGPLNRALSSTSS
Kind of test: Radioligand binding assay ([3H]PGD2 competition, HEK-hCRTH2 membranes). The essentials:
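Using membranes of an HEK line stably carrying hCRTH2, ligands were tested against [3H]PGD2 (3.0 nM) in pH 7.4 Tris buffer containing 2 mM MnCl2 and 1 mM EDTA. After one hour at room temperature, filters were washed cold and counted.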

The mark [1] stands for this setting: [3H]PGD2 binding, rated A-E (Table A).
Setting [2] is: [3H]PGD2 binding, values in text.

The molecule `O=C(O)CCCCc1nc2cc(C(=O)N3CC(c4ccccc4)C3)ccc2nc1-c1ccccc1` [compound 172, 3-phenyl-7-[(3-phenyl-1-azetidinyl)carbonyl]-2-quinoxalinepentanoic acid] gave a pKi under setting [1] of 8.70 to 10.00.

As for `O=C(N[C@H](c1ccc(F)cc1)C(F)(F)F)c1ccc2nc(-c3ccc(F)cc3)c(CCCC(F)(F)C(=O)O)nc2c1` [compound 528, (R)-2,2-difluoro-5-(3-(4-fluorophenyl)-7-((2,2,2-trifluoro-1-(4-fluorophenyl)ethyl)carbamoyl)quinoxalin-2-yl)pentanoic acid], the pKi ([3H]PGD2 competition, Table B) is 6.70 to 7.70.

Turning to `O=C(O)Cc1cccc(-c2nc3cc(C(=O)N4CCN(c5ccccc5)CC4)ccc3nc2-c2ccc(Cl)cc2)c1` [compound 259, 2-(3-(3-(4-chlorophenyl)-7-(4-phenylpiperazine-1-carbonyl)quinoxalin-2-yl)phenyl)acetic acid], the pKi ([3H]PGD2 competition, Table B) was 6.15 to 6.70.

Molecule `C[C@@H](NC(=O)c1ccc2nc(-c3ccc(Cl)cc3)c(CC3CC(C(=O)O)C3)nc2c1)c1ccc(F)cc1` (some centres unmarked) [30E] showed a negative logarithm of the Ki (pKi) under setting [1] of 7.70 to 8.68.

Turning to `O=C(O)CCCCc1nc2cc(C(=O)N[C@H]3CCOc4cc(C(F)(F)F)ccc43)ccc2nc1-c1ccc(Cl)cc1` [compound 692, (S)-5-(3-(4-chlorophenyl)-7-((7-(trifluoromethyl)chroman-4-yl)carbamoyl)quinoxalin-2-yl)pentanoic acid], the pKi ([3H]PGD2 competition, Table B) was 7.70 to 8.68.

Molecule `CC(CCCc1nc2cc(C(=O)N[C@@H](CCO)c3ccccc3)ccc2nc1-c1ccc(F)cc1)C(=O)O` (stereo partly drawn) [compound 213, 3-(4-fluorophenyl)-7-[[(3-hydroxy-1(S)-phenylpropyl)amino]carbonyl]-alpha-methyl-2-quinoxalinepentanoic acid] had a pKi under setting [1] of 6.70 to 7.70.

Molecule `CC(NC(=O)c1ccc2nc(-c3ccc(C(F)(F)F)cc3)c(CCCCC(=O)O)nc2c1)c1ccc(-c2ccccc2)cc1` (single isomer, unassigned) [4G, 7-[[(1-[1,1′-biphenyl]-4-ylethyl)amino]carbonyl]-3-[4-(trifluoromethyl)-phenyl]-2-quinoxaline-pentanoic acid] gave a pKi under setting [1] of 7.70 to 8.68.

Regarding `C[C@@H](NC(=O)c1ccc2nc(-c3ccc(C(F)(F)F)cc3Cl)c(CCCCC(=O)O)nc2c1)c1ccc(F)cc1` [compound 417, (R)-5-(3-(2-chloro-4-(trifluoromethyl)phenyl)-7-((1-(4-fluorophenyl)ethyl)carbamoyl)quinoxalin-2-yl) pentanoic acid], the pKi ([3H]PGD2 competition, Table B) is 7.70 to 8.68.

Under setting [1], `O=C(O)CCCCc1nc2cc(C(=O)N3CCCCC3c3ccccc3)ccc2nc1-c1ccccc1` (centres unmarked) [15AJ, 5-{3-phenyl-7-[(2-phenylpiperidin-1-yl)carbonyl]quinoxalin-2-yl}pentanoic acid] gave a pKi of 7.70 to 8.68.

For the molecule `C[C@@H](CCCc1nc2cc(C(=O)N[C@H]3CCCc4ccccc43)ccc2nc1-c1ccc(F)cc1)C(=O)O` [compound 483, (S)-5-(3-(4-fluorophenyl)-7-(((S)-1,2,3,4-tetrahydronaphthalen-1-yl)carbamoyl)quinoxalin-2-yl)-2-methylpentanoic acid], the negative logarithm of the Ki (pKi) ([3H]PGD2 competition, Table B) was 7.70 to 8.68.

Under setting [1], `O=C(O)CCCCc1nc2cc(C(=O)N3CCC4(CCc5ccccc54)CC3)ccc2nc1-c1ccccc1` [compound 121, 7-[(2,3-dihydrospiro [1H-indene-1,4′-piperidin]-1′-yl)carbonyl]-3-phenyl-2-quinoxalinepentanoic acid] showed a pKi of 7.70 to 8.68.

`O=C(O)CCCCc1nc2cc(C(=O)NC3(c4ccccc4)CC3)ccc2nc1-c1ccccc1` [15AE, 5-{3-phenyl-7-[(1-phenylcyclopropyl)carbamoyl]quinoxalin-2-yl}pentanoic acid] gave a negative logarithm of the Ki (pKi) under setting [1] of 7.70 to 8.68.

`O=C(O)CCCCc1nc2cc(C(=O)N3CCN(c4ccc(Cl)c(Cl)c4)CC3)ccc2nc1-c1ccc(Cl)cc1` [compound 624, 5-(3-(4-chlorophenyl)-7-(4-(3,4-dichlorophenyl)piperazine-1-carbonyl)quinoxalin-2-yl)pentanoic acid] gave a pKi ([3H]PGD2 competition, Table B) of 8.70 to 10.00.

For `O=C(O)Cc1cc(F)cc(CCc2nc3cc(C(=O)N4CCC(c5ccccc5)CC4)ccc3nc2-c2ccc(Cl)cc2)c1` [compound 42, 2-(3-(2-(3-(4-chlorophenyl)-7-(4-phenylpiperidine-1-carbonyl)quinoxalin-2-yl)ethyl)-5-fluorophenyl)acetic acid], under setting [1], the negative logarithm of the Ki (pKi) is 7.70 to 8.68.

As to `O=C(O)C1CC1CCc1nc2cc(C(=O)N3CCC(c4ccccc4)CC3)ccc2nc1-c1ccccc1` (single isomer, unassigned) [20G, 2-(2-(3-phenyl-7-(4-phenylpiperidine-1-carbonyl)quinoxaline-2-yl)ethyl)cyclopropanecarboxylic acid], the pKi under setting [1] was 7.70 to 8.68.

With `CC1(C)Oc2ccccc2C(NC(=O)c2ccc3nc(-c4ccc(Cl)cc4)c(CCCCC(=O)O)nc3c2)C1O` (centres unmarked) [compound 696, 5-(3-(4-chlorophenyl)-7-((3-hydroxy-2,2-dimethylchroman-4-yl)carbamoyl)quinoxalin-2-yl)pentanoic acid], the pKi ([3H]PGD2 competition, Table B) was 7.70 to 8.68.

Turning to `C[C@H](NC(=O)c1ccc2nc(-c3ccc(Cl)cc3)c(CCCCC(=O)O)nc2c1)c1ccccn1` [16Z, 3-(4-chlorophenyl)-7-[[[1(S)-(2-pyridinyl)ethyl]amino]carbonyl]-2-quinoxalinepentanoic acid], the negative logarithm of the Ki (pKi) under setting [1] is 7.70 to 8.68.

`O=C(O)CCCCc1nc2cc(C(=O)C3CC3)ccc2nc1-c1cccc(F)c1` [compound 3, 5-[7-(Cyclopropanecarbonyl)-3-(3-fluorophenyl)quinoxalin-2-yl]pentanoic Acid]: the negative logarithm of the Ki (pKi) is, setting by setting: under setting [1], 7.70 to 8.68; under setting [2], 8.49.

`COc1ccc(CNC(=O)c2ccc3nc(-c4ccc(Cl)cc4)c(CCC(C)CC(=O)O)nc3c2)cc1` (centres unmarked) [17H] gave a pKi under setting [1] of 7.70 to 8.68.

In the case of `C[C@H](NC(=O)c1ccc2nc(-c3ccc(F)cc3)c(CCCCC(=O)O)nc2c1)c1ccc(F)cc1` [compound 111, 3-(4-fluorophenyl)-7-[[[1(S)-(4-fluorophenyl)ethyl]amino]carbonyl]-2-quinoxalinepentanoic acid], the negative logarithm of the Ki (pKi) under setting [1] was 7.70 to 8.68.

In the case of `COc1ccc([C@H](C)NC(=O)c2ccc3nc(-c4ccc(Cl)cc4)c(CCC(C)CC(=O)O)nc3c2)cc1` (stereo partly drawn) [17P, 3-(4-chlorophenyl)-7-[[[1(S)-(4-methoxyphenyl)ethyl]amino]carbonyl]-beta-methyl-2-quinoxaline pentanoic acid], the pKi under setting [1] is 7.70 to 8.68.

`C[C@@H](CCc1nc2cc(C(=O)N[C@@H](C)c3ccc(F)cc3)ccc2nc1-c1ccccc1)CC(=O)O` [compound 288, (S)-5-(7-(((S)-1-(4-fluorophenyl)ethyl)carbamoyl)-3-3-phenylquinoxalin-2-yl)-3-methylpentanoic acid] showed a negative logarithm of the Ki (pKi) ([3H]PGD2 competition, Table B) of 6.70 to 7.70.

For the molecule `CC(c1ccon1)N(C)C(=O)c1ccc2nc(-c3ccc(Cl)cc3)c(CCCCC(=O)O)nc2c1` (centres unmarked) [compound 657, 5-(3-(4-chlorophenyl)-7-((1-(isoxazol-3-yl)ethyl)(methyl)carbamoyl)quinoxalin-2-yl) pentanoic acid], the pKi was 7.43 under setting [2] and 6.70 to 7.70 ([3H]PGD2 competition, Table B).

In turn, `N#Cc1cccnc1N1CCN(C(=O)c2ccc3nc(-c4ccc(Cl)cc4)c(CCCCC(=O)O)nc3c2)CC1` [compound 595, 5-(3-(4-chlorophenyl)-7-(4-(3-cyanopyridin-2-yl)piperazine-1-carbonyl)quinoxalin-2-yl)pentanoic acid] had a pKi ([3H]PGD2 competition, Table B) of 8.70 to 10.00.

Under setting [1], `CC(CCCc1nc2cc(C(=O)N[C@H](C)c3ccc(F)cc3)ccc2nc1-c1ccc(F)cc1)C(=O)O` (stereo partly drawn) [compound 209, 3-(4-fluorophenyl)-7-[[[1(R)-(4-fluorophenyl)ethyl]amino]carbonyl]-alpha-methyl-2-quinoxalinepentanoic acid] had a pKi of 7.70 to 8.68.

`O=C(O)CCCCc1nc2cc(C(=O)N[C@@H]3CCCc4cc(F)ccc43)ccc2nc1-c1ccc(Cl)cc1` [compound 184, 3-(4-chlorophenyl)-7-[[(6-fluoro-1,2,3,4-tetrahydro-1(R)-naphthalenyl)amino]carbonyl]-2-quinoxalinepentanoic acid] gave a negative logarithm of the Ki (pKi) under setting [1] of 8.70 to 10.00.

`O=C(O)CCCCc1nc2cc(C(=O)N3CCN(Cc4ccncc4)CC3)ccc2nc1-c1ccc(Cl)cc1` [compound 682, 5-(3-(4-chlorophenyl)-7-(4-(pyridin-4-ylmethyl)piperazine-1-carbonyl)quinoxalin-2-yl)pentanoic acid] gave a pKi ([3H]PGD2 competition, Table B) of 6.70 to 7.70.

Turning to `CC(CCc1nc2cc(C(=O)N[C@@H](C)c3ccc(F)cc3)ccc2nc1-c1ccc(F)cc1)CC(=O)O` (stereo partly drawn) [compound 430, 5-(3-(4-fluorophenyl)-7-(((S)-1-(4-fluorophenyl)ethyl)carbamoyl)quinoxalin-2-yl)-3-methylpentanoic acid], the pKi ([3H]PGD2 competition, Table B) is 7.70 to 8.68.

The molecule `O=C(O)CCCCc1nc2cc(C(=O)N3CC[C@@H](c4ccc(F)cc4)C3)ccc2nc1-c1ccc(Cl)cc1` [compound 560, (S)-5-(3-(4-chlorophenyl)-7-(3-(4-fluorophenyl)pyrrolidine-1-carbonyl)quinoxalin-2-yl)pentanoic acid] had a pKi ([3H]PGD2 competition, Table B) of 8.70 to 10.00.

Regarding `O=C(O)CCCCc1nc2cc(C(=O)N3CCN(c4ccccc4)CC3)cnc2nc1-c1ccccc1` [14G, 5-{3-phenyl-7-[(4-phenylpiperazin-1-yl)carbonyl]pyrido [2,3-b]pyrazin-2-yl}pentanoic acid], under setting [1], the negative-log Ki (pKi) is 8.70 to 10.00.

As a reminder, the pKi is −log10 of the Ki, conventionally taken in molar units.
